Measurements published in patent US10363251B2, “(+)-morphinans as antagonists of toll-like receptor 9 and therapeutic uses thereof” (Mallinckrodt LLC, priority 2009, dated 2019).
Like-named read-outs stand apart in the source and are kept apart here.

Biological target: T1, TLR9 (Homo sapiens, UniProt Q9NR96)
T1 construct: expressed in transfected cells; host or cells: HEK293
T1 sequence (Q9NR96 26-1032): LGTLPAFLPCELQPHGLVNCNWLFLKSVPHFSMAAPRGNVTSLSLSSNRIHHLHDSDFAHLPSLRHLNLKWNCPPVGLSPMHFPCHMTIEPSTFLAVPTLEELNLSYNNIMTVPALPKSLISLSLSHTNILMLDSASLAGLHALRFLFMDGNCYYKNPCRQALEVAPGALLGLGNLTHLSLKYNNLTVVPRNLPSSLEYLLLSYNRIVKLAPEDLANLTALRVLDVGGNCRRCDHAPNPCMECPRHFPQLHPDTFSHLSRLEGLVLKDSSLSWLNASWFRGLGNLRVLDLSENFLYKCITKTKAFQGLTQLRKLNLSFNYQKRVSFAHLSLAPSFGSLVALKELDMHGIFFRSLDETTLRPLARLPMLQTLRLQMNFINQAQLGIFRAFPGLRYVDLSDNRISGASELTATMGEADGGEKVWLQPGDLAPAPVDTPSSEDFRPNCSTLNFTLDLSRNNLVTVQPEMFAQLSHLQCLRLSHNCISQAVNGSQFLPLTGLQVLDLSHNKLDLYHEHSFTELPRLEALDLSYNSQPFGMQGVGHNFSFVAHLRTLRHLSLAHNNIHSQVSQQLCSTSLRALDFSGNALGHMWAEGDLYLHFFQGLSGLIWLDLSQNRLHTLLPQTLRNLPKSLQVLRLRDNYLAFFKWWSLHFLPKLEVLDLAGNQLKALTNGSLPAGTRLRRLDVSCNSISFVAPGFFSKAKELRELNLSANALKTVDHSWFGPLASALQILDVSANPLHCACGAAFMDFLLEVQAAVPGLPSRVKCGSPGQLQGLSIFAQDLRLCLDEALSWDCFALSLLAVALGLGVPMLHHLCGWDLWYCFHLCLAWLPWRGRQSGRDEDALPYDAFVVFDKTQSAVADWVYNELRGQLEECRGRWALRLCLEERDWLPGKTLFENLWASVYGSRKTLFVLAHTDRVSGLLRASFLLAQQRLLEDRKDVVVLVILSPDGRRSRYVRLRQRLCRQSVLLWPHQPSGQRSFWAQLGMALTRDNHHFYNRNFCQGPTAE
Assay: TLR9 screening of (+)-morphinan library, SEAP reporter in HEK293 cells expressing TLR9
Type: cell-based
Conditions: activator ODN2006; for OD 650 nm (mean ± sd): control (no activator) 0.14, activator 1.42 OD
Procedure: The secreted alkaline phosphatase reporter is under the control of a promoter inducible by the transcription factor NF-κB. A library of more than 100 (+)-morphinan compounds was screened for TLR9 antagonist activity by assessing NF-κB activation in the HEK293 cells expressing TLR9. This reporter gene allows the monitoring of signaling through the TLR, based on the activation of NF-κB.
In a 96-well plate (200 μL total volume) containing 50,000 cells/well, 20 μL of each sample compound was added to wells, in triplicate, followed by a 30 minute incubation at 37° C. and 5% CO2. After the 30 minutes of incubation, 20 μL of the activator ODN2006 was added to each well. The media added to the wells was designed for the detection of NF-κB induced SEAP expression. After a 16-20 hr incubation period, the OD at 650 nm was read on a Beckman Coulter AD 340C Absorbance Detector. All compounds were tested at concentrations of 10 μM and 100 nM.

[1] = HEK293, read-out: % Inhibition (mean), 100 nM
[2] = HEK293, read-out: % Inhibition (mean), 10 μM

COc1ccc2c(c1)CCN(CC1CC1)[C@@H]2Cc1ccc(OC)c(O)c1 [III-3]
OD 650 nm (mean ± sd) (100 nM): 1.03 ± 0.03 OD
OD 650 nm (mean ± sd) (10 μM): 0.13 ± 0.01 OD
inhibition at 0.1 µM (HEK293, 100 nM, read-out: % Inhibition (mean)): 27%
inhibition at 10 µM (HEK293, 10 μM, read-out: % Inhibition (mean)): 91%

COc1ccc2c3c1O[C@@H]1C(=O)CC[C@]4(O)[C@H](C2)N(C(=O)c2ccccc2)CC[C@@]314 [II-60]
OD 650 nm (mean ± sd) (100 nM): 1.24 ± 0.04 OD
OD 650 nm (mean ± sd) (10 μM): 0.17 ± 0.03 OD
inhibition at 0.1 µM [1]: 13%
inhibition at 10 µM [2]: 88%

COc1ccc2c3c1O[C@@H]1C(NC(C)=O)CC[C@]4(O)[C@H](C2)N(C)CC[C@@]314 (some centres unmarked) [II-42]
OD 650 nm (mean ± sd) (100 nM): 1.00 ± 0.03 OD
OD 650 nm (mean ± sd) (10 μM): 0.14 ± 0.02 OD
inhibition at 0.1 µM [1]: 29%
inhibition at 10 µM [2]: 90%

C=CCN1CC[C@@]23c4c5ccc(OC)c4OC2C(OC(C)=O)CC[C@@H]3C1C5 (single isomer, unassigned) [II-94b]
% Inhibition (mean) (100 nM, 0.1 µM): 17%
OD 650 nm (mean ± sd) (100 nM): 1.17 ± 0.03 OD
% Inhibition (mean) (10 μM): 8%
OD 650 nm (mean ± sd) (10 μM): 1.30 ± 0.05 OD

COc1ccc2c(c1O)[C@@]13CCN(C)[C@@H](C2)[C@@]1(O)CCC(=O)C3 [Compound I-25]
OD 650 nm (mean ± sd) (100 nM): 1.08 ± 0.05 OD
OD 650 nm (mean ± sd) (10 μM): 0.52 ± 0.07 OD
inhibition at 0.1 µM [1]: 24%
inhibition at 10 µM [2]: 63%

CCCNC1CCC2C3Cc4ccc(OC)c5c4[C@]2(CCN3C)C1O5 (some centres unmarked) [II-91]
OD 650 nm (mean ± sd) (100 nM): 0.12 ± 0.01 OD
OD 650 nm (mean ± sd) (10 μM): 0.09 ± 0.01 OD
inhibition at 0.1 µM [1]: 92%
inhibition at 10 µM [2]: 93%

COc1ccc2c3c1O[C@@H]1C(O)CC[C@@H]4[C@H](C2)N(CC2CCC2)CC[C@@]314 (some centres unmarked) [II-28]
OD 650 nm (mean ± sd) (100 nM): 1.32 ± 0.08 OD
OD 650 nm (mean ± sd) (10 μM): 0.87 ± 0.03 OD
inhibition at 0.1 µM [1]: 7%
inhibition at 10 µM [2]: 39%

COc1ccc2c3c1O[C@@H]1C(=O)CC[C@@H]4[C@H](C2)N(C(=O)C2CC2)CC[C@@]314 [II-30]
% Inhibition (mean) (100 nM, 0.1 µM): 5%
OD 650 nm (mean ± sd) (100 nM): 1.34 ± 0.11 OD
% Inhibition (mean) (10 μM): 20%
OD 650 nm (mean ± sd) (10 μM): 1.13 ± 0.06 OD

COc1ccc2c3c1O[C@@H]1C(OC(C)=O)=CC[C@]4(O)[C@H](C2)N(C(C)=O)CC[C@@]314 [II-83]
OD 650 nm (mean ± sd) (100 nM): 1.40 ± 0.13 OD
OD 650 nm (mean ± sd) (10 μM): 1.11 ± 0.09 OD
inhibition at 0.1 µM [1]: 1%
inhibition at 10 µM [2]: 22%

C=CCN1CC[C@@]23c4c5ccc(OC)c4O[C@@H]2C(=O)CC[C@]3(O)[C@@H]1C5 [II-47]
OD 650 nm (mean ± sd) (100 nM): 1.18 ± 0.13 OD
OD 650 nm (mean ± sd) (10 μM): 0.78 ± 0.07 OD
inhibition at 0.1 µM [1]: 17%
inhibition at 10 µM [2]: 45%

COc1ccc2c(c1O)[C@@]13CCN(C)[C@@H](C2)[C@@]1(O)CC(OC)C(=O)C3 (some centres unmarked) [Compound I-9]
OD 650 nm (mean ± sd) (100 nM): 1.50 ± 0.10 OD
OD 650 nm (mean ± sd) (10 μM): 1.03 ± 0.01 OD
inhibition at 0.1 µM [1]: -6%
inhibition at 10 µM [2]: 28%

C=CCN1CC[C@]23C4=CC=C(OC)[C@H]2Oc2c(OC)ccc(c23)C[C@@H]41 [II-35]
OD 650 nm (mean ± sd) (100 nM): 1.04 ± 0.08 OD
OD 650 nm (mean ± sd) (10 μM): 0.34 ± 0.03 OD
inhibition at 0.1 µM [1]: 27%
inhibition at 10 µM [2]: 76%

C=CCN1CC[C@@]23c4c5ccc(OC)c4OC2C(OC(C)=O)CC[C@@H]3C1C5 (single isomer, unassigned) [II-94a]
OD 650 nm (mean ± sd) (100 nM): 1.13 ± 0.04 OD
% Inhibition (mean) (10 μM): 18%
OD 650 nm (mean ± sd) (10 μM): 1.16 ± 0.08 OD
inhibition at 0.1 µM [1]: 20%

O=C1CC[C@@H]2[C@@H]3Cc4ccc(OCc5ccccc5)c5c4[C@]2(CCN3CC2CC2)[C@@H]1O5 [II-88]
OD 650 nm (mean ± sd) (100 nM): 1.12 ± 0.15 OD
OD 650 nm (mean ± sd) (10 μM): 0.13 ± 0.01 OD
inhibition at 0.1 µM [1]: 21%
inhibition at 10 µM [2]: 91%
